# Laboratory results taken from patent publication US20150166523A1, “BRANCHED CHAIN ALKYL HETEROAROMATIC RING DERIVATIVE” (TAISHO PHARMACEUTICAL CO., LTD., priority 2012, published 2015).
# Columns and labels:
# [1] = biological target: T1, human orexin-1 receptor (hOX1R) (Homo sapiens, UniProt O43613); assay: Measurement of orexin antagonistic activity (intracellular Ca2+ fluorescence, FDSS) on hOX1R; type: cell-based; settings: CHO cells forcibly expressing hOX1R; Fluo-4AM; ligand peptide (substituted human orexin-A) 300 pM; compound preincubated 30 minutes; read-out: IC50 Value OX1
# T1 construct: expressed in transfected cells; host or cells: Chinese hamster ovary (CHO) cells
# T1 sequence (O43613 1-425): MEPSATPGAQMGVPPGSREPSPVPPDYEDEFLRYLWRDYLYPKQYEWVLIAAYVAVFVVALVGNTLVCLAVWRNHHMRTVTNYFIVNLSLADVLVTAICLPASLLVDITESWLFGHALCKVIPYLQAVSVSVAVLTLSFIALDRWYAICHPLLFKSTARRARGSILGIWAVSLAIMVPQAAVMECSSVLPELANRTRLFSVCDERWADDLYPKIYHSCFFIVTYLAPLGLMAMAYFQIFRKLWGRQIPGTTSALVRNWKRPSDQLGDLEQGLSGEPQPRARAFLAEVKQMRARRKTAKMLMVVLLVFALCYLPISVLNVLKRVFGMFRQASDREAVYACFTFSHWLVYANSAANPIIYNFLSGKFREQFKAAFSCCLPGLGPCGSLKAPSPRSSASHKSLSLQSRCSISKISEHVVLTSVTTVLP
# Protocol: (§1) The antagonistic activities of the test compounds on human orexin-1 receptor (hOX1R) and orexin-2 receptor (hOX2R) were measured by modifying from the method described in literature (Toshikatsu Okumura et al., Biochemical and Biophysical Research Communications, 280, 976-981, 2001). Chinese hamster ovary (CHO) cells forcibly expressing the hOX1R and hOX2R were seeded into a 96 well Black clear bottom plate (Nunc) at 20,000 cells per well, which were cultured in Ham's F-12 medium containing 0.1 mM MEM non-essential amino acids, 0.5 mg/mL G418, 10% fetal bovine serum (all by Invitrogen) for 16 hours under the conditions of 37° C., 5% CO2. After removing the medium, 100 μL of 0.5 μM Fluo-4AM ester (Dojin) in an assay buffer (25 mM HEPES (Dojin), Hank's balanced salt solution (Invitrogen), 0.1% bovine serum albumin, 2.5 mM probenecid, 200 μg/mL Amaranth (all by Sigma-Aldrich), pH 7.4) was added and the cells were incubated for 60 minutes at 37° C., 5% CO2. After removing the assay buffer containing fluo-4AM ester, the test compound was dissolved in dimethyl sulfoxide to be 10 mM and diluted with the assay buffer, 150 μL, of which was added and incubated for 30 minutes.
# (§2) The reaction was measured for the fluorescence intensity of each well every second for 3 minutes using Functional Drug Screening System (FDSS; Hamamatsu Photonics K.K.), and the antagonistic activity was determined using the maximum fluorescence intensity as the indicator of intracellular Ca2+ concentration.
# [2] = biological target: T2, orexin-2 receptor (hOX2R) (Homo sapiens, UniProt O43614); assay: Measurement of orexin antagonistic activity (intracellular Ca2+ fluorescence, FDSS) on hOX2R; type: cell-based; settings: CHO cells forcibly expressing hOX2R; Fluo-4AM; ligand peptide (substituted human orexin-A) 3 nM; compound preincubated 30 minutes; read-out: IC50 Value OX2
# T2 construct: expressed in transfected cells; host or cells: Chinese hamster ovary (CHO) cells
# T2 sequence (O43614 1-444): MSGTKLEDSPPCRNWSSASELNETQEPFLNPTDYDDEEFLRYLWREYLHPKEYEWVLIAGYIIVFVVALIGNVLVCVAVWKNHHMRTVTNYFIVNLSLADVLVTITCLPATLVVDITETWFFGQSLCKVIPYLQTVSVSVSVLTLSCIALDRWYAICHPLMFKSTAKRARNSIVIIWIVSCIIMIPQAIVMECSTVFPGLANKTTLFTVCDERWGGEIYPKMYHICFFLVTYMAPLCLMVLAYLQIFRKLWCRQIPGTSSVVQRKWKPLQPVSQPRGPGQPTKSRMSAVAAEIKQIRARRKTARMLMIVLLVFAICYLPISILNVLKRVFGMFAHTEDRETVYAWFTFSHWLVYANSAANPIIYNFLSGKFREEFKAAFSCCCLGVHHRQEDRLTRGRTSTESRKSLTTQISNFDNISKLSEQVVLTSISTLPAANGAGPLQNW
# Protocol: as §1, §2
Compound,IC50 [1] [µM],IC50 [2] [µM]
"CCN(C(=O)c1cc(F)ccc1-c1ncccn1)[C@H](C)Cn1ccc(-c2ccc(F)cc2)n1 [Example 12, N-Ethyl-5-fluoro-N-[(2R)-1-[3-(4-fluorophenyl)-1H-pyrazol-1-yl]propan-2-yl]-2-(pyrimidin-2-yl)benzamide]",0.364,0.58
"CCN(C(=O)c1c(F)cccc1-c1ncccn1)[C@@H](C)Cn1ccc(-c2ccc(F)cc2)n1 [Example 13, N-Ethyl-2-fluoro-N-[(2S)-1-[3-(4-fluorophenyl)-1H-pyrazol-1-yl]propan-2-yl)-6-(pyrimidin-2-yl)benzamide]",0.0019,0.0539
"CCN(C(=O)c1nc(C)ccc1-n1nccn1)[C@@H](C)Cn1ccc(-c2ccc(F)c(F)c2)n1 [Example 16, N-[(2S)-1-[3-(3,4-Difiuorophenyl)-1H-pyrazol-1-yl]propan-2-yl]-N-ethyl-6-methyl-3-(2H-1,2,3-triazol-2-yl)pyridine-2-carboxamide]",0.0018,0.0097
"CCN(C(=O)c1cc(F)ccc1-c1ncccn1)[C@@H](C)Cn1ccc(-c2ccc(F)c(F)c2)n1 [Example 17, N-{(2S)-1-[3-(3,4-Difluorophenyl)-1H-pyrazol-1-yl]propan-2-yl}-N-ethyl-5-fluoro-2-(pyrimidin-2-yl)benzamide]",0.0021,0.0101
"C[C@@H](Cn1ccc(-c2ccc(F)cn2)n1)N(C)C(=O)c1ccccc1-n1nccn1 [Example 20, N-{(2S)-1-[3-(5-Fluoropyridin-2-yl)-1H-pyrazol-1-yl]propan-2-yl}-N-methyl-2-(2H-1,2,3-triazol-2-yl)benzamide]",0.0034,0.0559
"CCN(C(=O)c1ccccc1-n1nccn1)[C@@H](C)Cn1cc(-c2ccc(F)cn2)cn1 [Example 21, N-Ethyl-N-{(2S)-1-[4-(5-fluoropyridin-2-yl)-1H-pyrazol-1-yl]propan-2-yl}-2-(2H-1,2,3-triazol-2-yl)benzamide]",0.0081,0.188
"Cc1ccc(-n2nccn2)c(C(=O)N(C)[C@@H](C)Cn2cc(-c3ccc(F)cn3)cn2)c1 [Example 22, N-{(2S)-1-[4-(5-Fluoropyridin-2-yl)-1H-pyrazol-1-yl]propan-2-yl}-N,5-dimethyl-2-(2H-1,2,3-triazol-2-yl) benzamide]",0.0038,0.0529
"Cc1ccc(-n2nccn2)c(C(=O)N(C)[C@H](Cn2ccc(-c3ccc(F)cn3)n2)C(C)C)c1 [Example 23, N-{(2S)-1-[3-(5-Fluoropyridin-2-yl)-1H-pyrazol-1-yl]-3-methylbutan-2-yl}-N,5-dimethyl-2-(2H-1,2,3-triazol-2-yl) benzamide]",0.134,1.89
"CC[C@@H](Cn1ccc(-c2ccc(F)cn2)n1)N(C)C(=O)c1cc(C)ccc1-n1nccn1 [Example 24, N-{(2S)-1-[3-(5-Fluoropyridin-2-yl)-1H-pyrazol-1-yl]butan-2-yl}-N,5-dimethyl-2-(2H-1,2,3-triazol-2-yl) benzamide]",0.0098,0.0414
"Cc1ccc(-n2nccn2)c(C(=O)N(C)[C@@H](C)Cn2cc(-c3ccc(F)cc3)cn2)n1 [Example 28, N-{(2S)-1-[4-(4-Fluorophenyl)-1H-pyrazol-1-yl]propan-2-yl}-N,6-dimethyl-3-(2H-1,2,3-triazol-2-yl)pyridine-2-carboxamide]",0.0186,0.0893
"Cc1ccc(-n2nccn2)c(C(=O)N(C)[C@@H](C)Cn2cc(-c3ccc(F)c(F)c3)cn2)n1 [Example 29, N-{(2S)-1-[4-(3,4-Difluorophenyl)-1H-pyrazol-1-yl]propan-2-yl}-N,6-dimethyl-3-(2H-1,2,3-triazol-2-yl)pyridine-2-carboxamide]",0.0101,0.0256
"C[C@@H](Cn1cc(-c2ccc(F)cc2)cn1)N(C)C(=O)c1cc(F)ccc1-c1ncccn1 [Example 32, 5-Fluoro-N-{(2S)-1-[4-(4-fluorophenyl)-1H-pyrazol-1-yl]propan-2-yl}-N-methyl-2-(pyrimidin-2-yl)benzamide]",0.0207,0.0969
"C[C@@H](Cn1cc(-c2ccc(F)c(F)c2)cn1)N(C)C(=O)c1cc(F)ccc1-c1ncccn1 [Example 33, N-{(2S)-1-[4-(3,4-Difluorophenyl)-1H-pyrazol-1-yl]propan-2-yl}-5-fluoro-N-methyl-2-(pyrimidin-2-yl)benzamide]",0.0119,0.0208

# The next compounds have a lower IC50 [1] than those just listed; values first:
IC50 [1] [µM],IC50 [2] [µM],Compound
0.0017,0.0559,"CCN(C(=O)c1nc(C)ccc1-n1nccn1)[C@@H](C)Cn1cc(-c2ccc(F)cc2)cn1 [Example 26, N-Ethyl-N-{(2S)-1-[4-(4-fluorophenyl)-1H-pyrazol-1-yl]propan-2-yl}-6-methyl-3-(2H-1,2,3-triazol-2-yl)pyridine-2-carboxamide]"
0.0014,0.0138,"CCN(C(=O)c1nc(C)ccc1-n1nccn1)[C@@H](C)Cn1cc(-c2ccc(F)c(F)c2)cn1 [Example 27, N-{(2S)-1-[4-(3,4-Difluorophenyl)-1H-pyrazol-1-yl]propan-2-yl}-N-ethyl-6-methyl-3-(2H-1,2,3-triazol-2-yl) pyridine-2-carboxamide]"
0.0013,0.007,"CCN(C(=O)c1ccc(F)cc1-c1ncccn1)[C@@H](C)Cn1ccc(-c2ccc(F)cc2)n1 [Example 14, N-Ethyl-4-fluoro-N-[(2S)-1-[3-(4-fluorophenyl)-1H-pyrazol-1-yl]propan-2-yl)-2-(pyrimidin-2-yl)benzamide]"
0.0012,0.018,"CCN(C(=O)c1nc(C)ccc1-c1ncccn1)[C@@H](C)Cn1ccc(-c2ccc(F)cc2)n1 [Example 15, N-Ethyl-N-[(2S)-1-[3-(4-fluorophenyl)-1H-pyrazol-1-yl]propan-2-yl}-6-methyl-3-(pyrimidin-2-yl)pyridine-2-carboxamide]"
0.0012,0.0357,"CCN(C(=O)c1cc(F)ccc1-c1ncccn1)[C@@H](C)Cn1cc(-c2ccc(F)cc2)cn1 [Example 30, N-Ethyl-5-fluoro-N-{(2S)-1-[4-(4-fluorophenyl)-1H-pyrazol-1-yl]propan-2-yl}-2-(pyrimidin-2-yl)benzamide]"
0.0011,0.0058,"Cc1ccc(-n2nccn2)c(C(=O)N(C)[C@@H](C)Cn2ccc(-c3ccc(F)cn3)n2)c1 [Example 19, N-{(2S)-1-[3-(5-Fluoropyridin-2-yl)-1H-pyrazol-1-yl]propan-2-yl}-N,5-dimethyl-2-(2H-1,2,3-triazol-2-yl) benzamide]"
0.001,0.0102,"CCN(C(=O)c1cc(F)ccc1-c1ncccn1)[C@@H](C)Cn1cc(-c2ccc(F)c(F)c2)cn1 [Example 31, N-{(2S)-1-[4-(3,4-Difluorophenyl)-1H-pyrazol-1-yl]propan-2-yl}-N-ethyl-5-fluoro-2-(pyrimidin-2-yl)benzamide]"
0.0007,0.0077,"CCN(C(=O)c1ccccc1-n1nccn1)[C@@H](C)Cn1ccc(-c2ccc(F)cn2)n1 [Example 18, N-Ethyl-N-{(2S)-1-[3-(5-fluoropyridin-2-yl)-1H-pyrazol-1-yl]propan-2-yl}-2-(2H-1,2,3-triazol-2-yl)benzamide]"
0.0007,0.0064,"CCN(C(=O)c1cc(C)ccc1-n1nccn1)[C@@H](C)Cn1cc(-c2ccc(F)cn2)cn1 [Example 25, N-Ethyl-N-{(2S)-1-[4-(5-fluoropyridin-2-yl)-1H-pyrazol-1-yl]propan-2-yl}5-methyl-2-(2H-1,2,3-triazol-2-yl) benzamide]"
